US10689366B2, “Compounds for MALT1 degredation” (Cornell University, priority 2016, dated 2020)
Where two headings read alike, the source gives them in different places.

How the values were obtained:
[1] = target: T1, MALT1 (Homo sapiens, UniProt Q9UDY8); assay: MALT1 degradation assay (Western blot) in OCI-Ly3 cells; type: cell-based; design: endogenous in cells; host or cells: OCI-Ly3; settings: 48 hours, normalized to Actin, relative to vehicle treated cells
T1 sequence (Q9UDY8 1-824): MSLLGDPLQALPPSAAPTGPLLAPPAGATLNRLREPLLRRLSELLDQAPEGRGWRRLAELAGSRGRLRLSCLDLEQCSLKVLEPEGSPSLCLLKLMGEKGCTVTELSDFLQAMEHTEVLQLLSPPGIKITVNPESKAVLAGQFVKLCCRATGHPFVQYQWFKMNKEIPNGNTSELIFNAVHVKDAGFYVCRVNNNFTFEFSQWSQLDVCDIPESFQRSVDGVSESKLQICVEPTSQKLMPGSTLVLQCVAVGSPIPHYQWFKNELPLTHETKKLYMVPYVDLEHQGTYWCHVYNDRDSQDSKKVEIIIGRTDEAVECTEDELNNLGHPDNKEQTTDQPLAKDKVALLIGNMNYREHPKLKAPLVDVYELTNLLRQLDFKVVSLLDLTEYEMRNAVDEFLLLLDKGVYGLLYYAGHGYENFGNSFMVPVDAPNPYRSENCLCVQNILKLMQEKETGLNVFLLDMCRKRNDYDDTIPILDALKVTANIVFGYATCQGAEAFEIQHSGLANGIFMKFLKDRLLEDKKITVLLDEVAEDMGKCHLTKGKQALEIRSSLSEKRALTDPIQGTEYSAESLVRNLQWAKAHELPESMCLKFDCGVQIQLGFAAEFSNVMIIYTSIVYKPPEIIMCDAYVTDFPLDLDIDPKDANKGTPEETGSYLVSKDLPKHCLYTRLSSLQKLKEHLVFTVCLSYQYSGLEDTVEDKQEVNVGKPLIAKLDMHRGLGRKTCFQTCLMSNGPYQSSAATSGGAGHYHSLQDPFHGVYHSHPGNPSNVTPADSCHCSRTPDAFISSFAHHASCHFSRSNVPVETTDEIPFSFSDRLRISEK
Description: In the experiments, OCI-Ly3 cells were grown for 6 hours in the presence of the indicated concentrations of Examples 1-6, 9, and 10. Proteins were extracted, analyzed by Western blot, and membranes were immunoblotted for MALT1, CRBN, and Actin. Table 3 provides the results of experimental data obtained from the example compounds of the present disclosure. In particular, OCI-Ly3 cells were grown for 48 hours in the presence of the indicated concentrations of Examples 1-19. Proteins were extracted, analyzed by Western blot, and membranes were immunoblotted for MALT1, CRBN, and Actin. Western blot bands were quantified using Image Lab software. Results were normalized to Actin expression and presented as % MALT1 degradation relative to vehicle treated cells.

[2] = target: T1, MALT1; assay: Mechanistic validation of MALT1 degradation in wild type and CRBN knockout 293T cells (Western blot); type: cell-based; design: endogenous in cells; settings: wild type vs CRBN knockout 293T cells, 10 μM, 24 hours; FIG. 2
Description: Wild type and CRBN knockout 293T cells were treated with 10 μM of Example 1 or vehicle for 24 hours, and protein lysates were collected. The protein was analyzed by Western blot and immunoassayed for MALT1, CRBN, and Actin.
Wild type and CRBN knockout 293T cells were treated with 10 μM of Example 1 or vehicle for 24 hours, and protein lysates were collected. 80 μg of protein were analyzed by Western blot and immunoassayed for MALT1, CRBN and Actin.

[3] = read-out: % MALT1 Degradation at 1 μM

Structure (SMILES) | % MALT1 degradation at 1 µM [1, 3] [%] | CRBN-dependent MALT1 degradation [2] | % MALT1 degradation at 1 µM [1] [%]
C[C@@H](c1c(NC(=O)Nc2cnc(-n3nccn3)c(Cl)c2)cnc2cc(Cl)nn12)N(C)C(=O)CCOCCOCCOCCOCCNc1cccc2c1C(=O)N(C1CCC(=O)NC1=O)C2=O (stereo partly drawn) [Example 1, N—((S)-1-(2-Chloro-6-(3-(5-chloro-6-(2H-1,2,3-triazol-2-yl)pyridin-3-yl)ureido)pyrazolo[1,5-a]pyrimidin-7-yl)ethyl)-1-((2-(2,6-dioxopiperidin-3-yl)-1,3-dioxoisoindolin-4-yl)amino)-N-methyl-3,6,9,12-tetraoxapentadecan-15-amide] | 31 to 50 | promoted CRBN-dependent MALT1 degradation | –
CO[C@@H](C)c1c(NC(=O)Nc2cnc(-n3cc(CNC(=O)CCOCCOCCOCCN4CCN(Cc5ccc(COc6cccc7c6CN([C@H]6CCC(=O)NC6=O)C7=O)cc5)CC4)cn3)c(Cl)c2)cnc2cc(Cl)nn12 [Example 18, N-((1-(3-Chloro-5-(3-(2-chloro-7-((S)-1-methoxyethyl)pyrazolo[1,5-a]pyrimidin-6-yl)ureido)pyridin-2-yl)-1H-pyrazol-4-yl)methyl)-3-(2-(2-(2-(4-(4-(((2-((5)-2,6-dioxopiperidin-3-yl)-1-oxoisoindolin-4-yl)oxy)methyl)benzyl)piperazin-1-yl)ethoxy)ethoxy)ethoxy)propanamide] | – | – | >50
CO[C@@H](C)c1c(NC(=O)Nc2cc(Cl)cnc2OCCNC(=O)CCOCCOCCOCCN2CCN(Cc3ccc(COc4cccc5c4CN([C@H]4CCC(=O)NC4=O)C5=O)cc3)CC2)cnc2cc(Cl)nn12 [Example 19, N-(2-((5-Chloro-3-(3-(2-chloro-7-((S)-1-methoxyethyl)pyrazolo[1,5-a]pyrimidin-6-yl)ureido)pyridin-2-yl)oxy)ethyl)-3-(2-(2-(2-(4-(4-(((2-((S)-2,6-dioxopiperidin-3-yl)-1-oxoisoindolin-4-yl)oxy)methyl)benzyl)piperazin-1-yl)ethoxy)ethoxy)ethoxy)propanamide] | > 50 | – | –
